Laboratory results: PubChem BioAssay AID2742 (NMMLSC, 2010)
Active and inactive are the calls of the source.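 The calls were made as follows: active = fitted half-maximal concentration for changing background-corrected GFP signal at or below a set limit; inactive = the rest.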

Test: modulators of MEP2-GFP levels in yeast, dose response, S. cerevisiae, flow cytometry GFP, MLPCN hits (AID 2742);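 also: GFP tag reports level of MEP2 protein as a downstream target of TOR signalling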
Settings: S. cerevisiae MEP2-GFP strain, flow cytometry fluorescence, 3 h; at 33 µM (top of the series)
With `COC(=O)CCCC1=CC2=CC(=O)C(C)(OC(=O)CCc3ccccc3)C(=O)C2=CO1` (stereo not given) the GFP fluorescence (kMESF), higher = increase was 1.97 kMESF (inactive). In the case of `Cc1cccc(N2C(=O)C(Cl)=C(Nc3c(C)n(C)n(-c4ccccc4)c3=O)C2=O)c1C`, the GFP fluorescence (kMESF), higher = increase is reported as 3.31 kMESF (inactive). In the case of `Cc1nn2c(NCc3ccccn3)c3c(nc2c1-c1ccccc1)CCC3`, the GFP fluorescence (kMESF), higher = increase is reported as 2.73 kMESF (inactive). With `Nc1ccc2ccc3cccc[n+]3c2c1` the GFP fluorescence (kMESF), higher = increase was 5.03 kMESF (inactive). With `Oc1ccc2ccccc2c1/C=N/Nc1nnc(-c2ncc[nH]2)c2ccccc12` the GFP fluorescence (kMESF), higher = increase was -21.2 kMESF (inactive). For `O=C1N(c2ccccc2C(F)(F)F)O[C@@]1(c1ccccc1)C1CCCCC1`, the GFP fluorescence (kMESF), higher = increase was 2.87 kMESF (inactive). With `CC(Oc1cccc(Cl)c1)C(=O)Nc1nc(-c2ccccn2)cs1` (stereo not given) the GFP fluorescence (kMESF), higher = increase was 5.7 kMESF (inactive). With `Cc1cc(/C=C2/SC(=S)N(c3cccc(Cl)c3)C2=O)c(C)n1-c1cccnc1` the GFP fluorescence (kMESF), higher = increase was 8.22 kMESF (inactive). For `O=C1C=CC(=O)N1c1ccc(N2CCCCC2)cc1`, the GFP fluorescence (kMESF), higher = increase was 5.69 kMESF (inactive). With `O=[N+]([O-])c1ccc(-c2cn3nc(-c4ccccc4)c(-c4ccccc4)nc3n2)cc1` the GFP fluorescence (kMESF), higher = increase was 4.08 kMESF (inactive). In the case of `CC(C)[C@]1(c2ccc(Cl)cc2)ON(c2ccccc2C(F)(F)F)C1=O`, the GFP fluorescence (kMESF), higher = increase is reported as 2.37 kMESF (inactive). For `CCOC(=O)c1cc(-c2ccc(/C=C3/C(=O)NC(=O)C(C#N)=C3C)o2)ccc1Cl`, the GFP fluorescence (kMESF), higher = increase was 6.22 kMESF (inactive). With `COc1ccc(NC2=C(Cl)C(=O)N(CCc3ccccc3)C2=O)c(OC)c1` the GFP fluorescence (kMESF), higher = increase was 1.67 kMESF (inactive). For `Cc1ccc(/C=C2/SC(=S)N(C3CCCCC3)C2=O)o1`, the GFP fluorescence (kMESF), higher = increase was 4.94 kMESF (inactive). In the case of `N#Cc1c2ccc([N+](=O)[O-])cc2[n+]([O-])n1-c1ccccc1`, the GFP fluorescence (kMESF), higher = increase is reported as 1.82 kMESF (inactive). For `O=c1c2cc(Br)ccc2nc(-c2ccc([N+](=O)[O-])cc2)n1O`, the GFP fluorescence (kMESF), higher = increase was 3.87 kMESF (inactive). In the case of `COc1cc(N2C(=O)C=CC2=O)c(OC)cc1Cl`, the GFP fluorescence (kMESF), higher = increase is reported as 3.78 kMESF (inactive). With `COC(=O)c1cc(N2C(=O)C3C(C2=O)C2(C)C=CC3(C)O2)ccc1Cl` (stereo not given) the GFP fluorescence (kMESF), higher = increase was 4.8 kMESF (inactive). For `O=c1c(-c2ccc(Cl)cc2)[n+]([O-])c2ccccc2n1O`, the GFP fluorescence (kMESF), higher = increase was 24.9 kMESF (inactive). For `CC(C)(C)C(=O)C(Cl)C(=O)Nc1ccccc1` (stereo not given), the GFP fluorescence (kMESF), higher = increase was 4.12 kMESF (inactive). In the case of `Clc1cnc(N/N=C/c2cccs2)c(Cl)c1`, the GFP fluorescence (kMESF), higher = increase is reported as 2.89 kMESF (inactive). In the case of `COc1ccc([C@@]2(C(C)C)ON(c3ccccc3C(F)(F)F)C2=O)cc1`, the GFP fluorescence (kMESF), higher = increase is reported as 3.06 kMESF (inactive). For `Fc1cccc(Nc2ncnc3c2cnn3-c2ccccc2)c1`, the GFP fluorescence (kMESF), higher = increase was 2.97 kMESF (inactive). In the case of `CCC(=O)Nc1ccc(NC(=O)c2cc3ccccc3o2)cc1`, the GFP fluorescence (kMESF), higher = increase is reported as 2.2 kMESF (inactive). In the case of `O=C(CS(=O)c1ccccc1[N+](=O)[O-])Oc1ccc(Br)cc1` (stereo not given), the GFP fluorescence (kMESF), higher = increase is reported as 4.43 kMESF (inactive). With `Cc1sc(/C=C2\C(=O)ON=C2c2ccccc2)cc1Br` the GFP fluorescence (kMESF), higher = increase was 1.67 kMESF (inactive). In the case of `Cc1nc2ccc(NC(=O)c3oc4ccc(F)cc4c3C)cc2s1`, the GFP fluorescence (kMESF), higher = increase is reported as 2.07 kMESF (inactive). With `O=[N+]([O-])c1c(Nc2ccccn2)cc(Cl)c2nonc12` the GFP fluorescence (kMESF), higher = increase was 21.3 kMESF (inactive). For `C[C@@H]1C[C@@H]([C@H](O)CC2CC(=O)NC(=O)C2)C(=O)[C@@H](C)C1`, the GFP fluorescence (kMESF), higher = increase was 3.27 kMESF (inactive). In the case of `Oc1c(CN2CCN(c3ccccc3)CC2)cc(Br)c2cccnc12`, the GFP fluorescence (kMESF), higher = increase is reported as 7.37 kMESF (inactive). For `Cc1c(NC2=C(Cl)C(=O)N(c3ccccc3)C2=O)c(=O)n(-c2ccccc2)n1C`, the GFP fluorescence (kMESF), higher = increase was 2.91 kMESF (inactive). In the case of `Cc1c(C)c2ccc(Oc3ccc([N+](=O)[O-])cc3C(F)(F)F)c(C)c2oc1=O`, the GFP fluorescence (kMESF), higher = increase is reported as 2 kMESF (inactive). In the case of `O=c1[nH]c(-c2ccc(Cl)cc2)cs1`, the GFP fluorescence (kMESF), higher = increase is reported as 1.62 kMESF (inactive). With `CCOC(=O)c1c(C)oc2c1c(C(c1ccncc1)N1CCOCC1)c(O)c1ccccc12` (stereo not given) the GFP fluorescence (kMESF), higher = increase was 2.42 kMESF (inactive). In the case of `Cc1ccc2nc(/C(C#N)=C/c3ccc(O)c(O)c3)[nH]c2c1`, the GFP fluorescence (kMESF), higher = increase is reported as 4.49 kMESF (inactive). In the case of `O=C(/C=C/c1ccccc1Cl)c1ccccc(=O)c1O`, the GFP fluorescence (kMESF), higher = increase is reported as -0.57 kMESF (inactive). For `CCN(CC)c1ccc(/C=C2\C(=O)c3ccc(C(=O)O)cc3C2=O)cc1`, the GFP fluorescence (kMESF), higher = increase was 47.5 kMESF (inactive). In the case of `Cc1ccc(C(=O)/C=C/C(=O)c2ccc(C)cc2)cc1`, the GFP fluorescence (kMESF), higher = increase is reported as 3.81 kMESF (inactive). For `CN(C)c1ccc(N=Cc2nc(-c3ccccc3)oc2OC(=O)c2cccc(Cl)c2)cc1`, the GFP fluorescence (kMESF), higher = increase was 3.27 kMESF (inactive). With `O=C1NC(=O)N(Cc2ccco2)C(=O)/C1=C/c1ccc(-c2cccc([N+](=O)[O-])c2)o1` the GFP fluorescence (kMESF), higher = increase was 4.33 kMESF (inactive). In the case of `COc1ccc(C(c2c(C)[nH]n(C(N)=S)c2=O)C(C#N)C#N)cc1` (stereo not given), the GFP fluorescence (kMESF), higher = increase is reported as 4.93 kMESF (inactive). In the case of `COc1cccc(N=Nc2ccc(O)c3ncccc23)c1`, the GFP fluorescence (kMESF), higher = increase is reported as 5.8 kMESF (inactive). With `CC(C)[C@]1(c2ccccc2)ON(c2ccccc2C(F)(F)F)C1=O` the GFP fluorescence (kMESF), higher = increase was 2.87 kMESF (inactive). With `COc1cccc(C(=O)Nc2nnc(-c3ccc(Cl)cc3)o2)c1` the GFP fluorescence (kMESF), higher = increase was 4.71 kMESF (inactive). For `Cc1cc(Br)c2c(c1)/C(=C/C(=O)c1cccs1)C(=O)N2`, the GFP fluorescence (kMESF), higher = increase was 3.78 kMESF (inactive). In the case of `COc1ccc(N=Cc2nc(-c3ccccc3)oc2OC(C)=O)cc1`, the GFP fluorescence (kMESF), higher = increase is reported as 3.51 kMESF (inactive). In the case of `CC(C)Oc1ccc(C(=O)/C=C2/C(=O)Nc3ccccc32)cc1`, the GFP fluorescence (kMESF), higher = increase is reported as 3.75 kMESF (inactive). With `Cc1ccc(/C=C2\C(=O)NC(=S)N(c3ccc(F)cc3)C2=O)s1` the GFP fluorescence (kMESF), higher = increase was 4.08 kMESF (inactive). For `COc1cc(/C=C/c2ccc3c(Br)cc(Br)c(O)c3n2)ccc1O`, the GFP fluorescence (kMESF), higher = increase was 9.24 kMESF (inactive). For `N#C/C(=C\c1cc(Br)ccc1F)C(=O)NC1CC1`, the GFP fluorescence (kMESF), higher = increase was 6.77 kMESF (inactive). For `Cc1ccc(-c2nn(C(C)(C)C)c3ncnc(N)c23)cc1`, the GFP fluorescence (kMESF), higher = increase was 6.01 kMESF (inactive). For `Cc1cccc(C(=O)NNC(=S)NC(=O)c2ccccc2)c1`, the GFP fluorescence (kMESF), higher = increase was 5.31 kMESF (inactive). In the case of `Cc1ccc(C(=O)Oc2oc(-c3ccco3)nc2C=Nc2ccc(Cl)cc2)cc1`, the GFP fluorescence (kMESF), higher = increase is reported as 3.92 kMESF (inactive). For `O=C(/C=C/c1ccccc1)c1cc(Br)ccc(=O)c1O`, the GFP fluorescence (kMESF), higher = increase was -11.3 kMESF (inactive). For `CCOc1cc(C=C2C(=O)c3ccccc3C2=O)ccc1OCC(=O)Nc1ccc(C)cc1`, the GFP fluorescence (kMESF), higher = increase was 1.75 kMESF (inactive). With `C=CCOc1cccc(C(=O)/C=C2/C(=O)Nc3ccccc32)c1` the GFP fluorescence (kMESF), higher = increase was 3.41 kMESF (inactive). With `O=C(Nc1ccccc1)ON=C1CCCC1` the GFP fluorescence (kMESF), higher = increase was 2.76 kMESF (inactive). With `CC(C)CC(=O)NC(=S)Nc1nc(-c2ccccc2)cs1` the GFP fluorescence (kMESF), higher = increase was 2.07 kMESF (inactive). In the case of `CC(=O)Nc1ncnc2c1c(-c1ccc(Cl)cc1)nn2C(C)(C)C`, the GFP fluorescence (kMESF), higher = increase is reported as 2.08 kMESF (inactive). In the case of `Oc1ccc(Br)cc1/C=N/Nc1ccccn1`, the GFP fluorescence (kMESF), higher = increase is reported as 3.94 kMESF (inactive).
